Source: paper PMC13206195, “Low‐dose cannabidiol increases plasma concentrations of amitriptyline: A clinical drug–drug interaction study” (British Journal of Clinical Pharmacology, 2025)
Like-named read-outs stand apart in the source and are kept apart here.

Key:
[1] = cited from earlier work
[2] = Plasma pharmacokinetics (non-compartmental analysis) in open-label, fixed-sequence, 2-way crossover study in healthy participants; settings: for Clast, Geometric mean / Clast, Mean / Clast, Median / tlag, Median / tmax, Median / AUC(0-t) / Cmax / AUClast, Geometric mean / AUClast, Mean / AUClast, Median / Cmax, Geometric mean / Cmax, Mean / Cmax, Median: fasted, plasma; for AUC(0-t) / Cmax: po; for AUC(0-t): AUClast
Description: (§1) This study was an open‐label, fixed sequence, 2‐way crossover study in 13 healthy participants. On Day 1, 25 mg amitriptyline and 50 mg tramadol were orally administered concurrently, followed by a wash‐out period of at least 7 days. On Day 8, 30 mg of oral CBD oil was administered 1 h prior to amitriptyline and tramadol. On Days 1 and 8, participants presented to the clinical research unit in the morning and were discharged in the evening, briefly returning in the morning of Days 2 and 9 for pharmacokinetic sampling.
The cannabidiol formulation used in this study was Clinican®, an almond oil‐based formulation containing 10% cannabidiol and manufactured by Clinical Cannabis Care (Breukelen, the Netherlands) and administered orally with 240 mL of water following an overnight fast. Single doses of 30 mg CBD were administered. […] Furthermore, we estimated that the 30 mg CBD dose is at the upper end of the range of CBD intake of patients who use CBD‐rich varieties of medicinal cannabis (or formulations containing THC and CBD, like Sativex®) for treatment of neuropathic pain symptoms,[23] and as well as an approximately median dose for OTC CBD users. Cannabidiol was administered one hour prior to amitriptyline and tramadol (during visit 2 only) to offset the slower absorption expected from an oil‐based cannabinoid formulation, compared to the victim drugs.
Generic oral formulations of tramadol (50 mg tramadol hydrochloride capsule) and amitriptyline (25 mg hydrochloride tablet) were used in this study. These doses were at the low end of the therapeutic range, allowing for a safety margin for possible increases in plasma concentrations when co‐administered with CBD. Tramadol and amitriptyline were not known to induce or inhibit CYP‐enzymes in general, and no specific pharmacokinetic interactions between the two victim drugs were known to the investigators. […] However, this risk was deemed clinically irrelevant when low, single doses were administered to healthy volunteers. Based on these consideration regarding pharmacokinetics and safety, the two victim drugs were administered together in a cocktail design.
Sampling for pharmacokinetics was performed pre‐dose and at 1, 2, 3, 4, 5, 6, 8, 12 and 24 h following the administration of amitriptyline and tramadol. Approximately 4 mL blood was collected via an i.v. catheter placed in an antecubital vein in the arm in polypropylene K2EDTA tubes. Following collection, samples were immediately cooled on ice. Within 30 min of collection, plasma was separated by centrifugation at approximately 2000 g for 10 min and promptly transferred into amber glass vials and stored at […]. The samples were analysed by the iC42 Laboratory (Department of Anesthesiology, University of Colorado, Aurora, Colorado, USA). CBD and CBD metabolites were analysed using a validated assay that was previously published (CBD metabolite concentrations not reported in this manuscript).[33] Concentrations of amitriptyline, nortriptyline, tramadol and O‐desmethyltramadol were determined using a validated assay that was based on a previously published high‐performance liquid chromatography tandem mass spectrometry (HPLC‐MS/MS) method.[34] Details regarding the bioanalytical assays used to measure CBD, amitriptyline, nortriptyline, tramadol and O‐desmethyltramadol are located in the Supplementary Materials section.
R 3.6.1 for Windows (R Foundation for Statistical Computing/R development Core Team, Vienna, Austria, 2019), PKNCA package version 0.9.5, was used to calculate pharmacokinetic parameters. PK parameter calculations were based on actual sampling time.

[3] = cited from earlier work; for mean (SD) AUC: previous trial
[4] = clinical
Description: as §1
To establish whether significant treatment effects could be detected, the PK parameters were compared with a mixed effects model analysis of variance (ANOVA) with treatment as a fixed factor and participants as a random factor on log‐transformed data. The general treatment effect and specific contrasts were reported with the estimated difference and the 95% confidence interval, the least square mean estimates and the p‐value. All calculations were performed using SAS for Windows V9.4 (SAS Institute, Inc., Cary, NC, USA).

[5] = tested on: CYP3A4 and CYP2B6; settings: cited from earlier work
[6] = tested on: CYP2D6; settings: cited from earlier work
[7] = Visit 2 (Day 8): 30 mg CBD oral 1 h prior to 25 mg amitriptyline + 50 mg tramadol, N=12
[8] = human, in vivo, Geometric mean, Visit 2 (Day 8): 30 mg CBD oral 1 h prior to 25 mg amitriptyline + 50 mg tramadol, N=12
[9] = human, in vivo, Mean, Visit 2 (Day 8): 30 mg CBD oral 1 h prior to 25 mg amitriptyline + 50 mg tramadol, N=12
[10] = human, in vivo, Median, Visit 2 (Day 8): 30 mg CBD oral 1 h prior to 25 mg amitriptyline + 50 mg tramadol, N=12
[11] = Visit 1 (Day 1), no CBD, based on AUClast, corrected for molecular weight ratio, N=13
[12] = Visit 1 (Day 1): 25 mg amitriptyline + 50 mg tramadol oral, no CBD, N=13
[13] = Visit 2 (Day 8), 30 mg CBD 1 h prior, based on AUClast, corrected for molecular weight ratio, N=12
[14] = Visit 1: without CBD, mixed effects model on log-transformed data
[15] = Visit 2 (with 30 mg CBD) vs Visit 1 (without CBD)
[16] = Visit 2: with 30 mg CBD, mixed effects model on log-transformed data
[17] = human, in vivo, Geometric mean, Visit 1 (Day 1): 25 mg amitriptyline + 50 mg tramadol oral, no CBD, N=13
[18] = human, in vivo, Mean, Visit 1 (Day 1): 25 mg amitriptyline + 50 mg tramadol oral, no CBD, N=13
[19] = human, in vivo, Median, Visit 1 (Day 1): 25 mg amitriptyline + 50 mg tramadol oral, no CBD, N=13

For 11‐OH‐THC, the “increase of mean AUC by 30 mg CBD” value ([1]; 30 mg CBD administered 30 min before THC) is given as 71%.
With `C=C(C)[C@@H]1CCC(C)=C[C@H]1c1c(O)cc(CCCCC)cc1O` [Cannabidiol] the “Clast, Geometric mean” value [2, 7] was 1.0 ng/mL, the “Clast, Mean” value [2, 7] was 1.1 ng/mL and the “Clast, Median” value [2, 7] was 1.1 ng/mL. For the same molecule, the “tlag, Median” value [2, 7] was 0.0 h, the “tmax, Median” value [2, 7] was 2.0 h and the AUC(0-t) [2, 8] was 5.3 ng·h/mL. The AUC(0-t) [2, 9] was 6.9 ng·h/mL, the AUC(0-t) [2, 10] was 6.2 ng·h/mL and the Cmax [2, 8] was 2.9 ng/mL. The Cmax [2, 9] was 3.5 ng/mL, the Cmax [2, 10] was 3 ng/mL and the “mean±SD Cmax” value ([1]; previous study, 30 mg CBD tablet formulation after semi-standardized light breakfast) was 5.6 ± 4.6 ng/mL. For the same molecule, the “terminal half‐life” value [3] was ~ 60 h.
With `CN(C)CCC=C1c2ccccc2CCc2ccccc21` [Amitriptyline] the baseline amitriptyline concentration ([2]; human, in vivo) was 0.85 ng/mL, the AUC(0-t) ([4]; human, in vivo) was 139 ng·h/mL and the “Clast, back transformed LSM Visit 1” value ([4]; human, in vivo) was 3.40. For the same molecule, the Cmax ([4]; human, in vivo) was 12.3 ng/mL, the AUC(0-t) ([4]; human, in vivo, 30 mg) was 156 ng·h/mL and the Cmax ([4]; human, in vivo, 30 mg) was 14.5 ng/mL. For the same molecule, the “terminal half‐life” value [3] was ~ 25 h and the “mean (SD) AUC” value ([3]; 28 participants dosed with 10 mg of amitriptyline) was 156 (87.8) ng*h/mL.
With `CN(C)C[C@H]1CCCC[C@]1(O)c1cccc(O)c1` [O‐desmethyltramadol] the “MPR (metabolite to parent ratio), Geometric mean” value [2, 11] was 0.37, the “MPR (metabolite to parent ratio), Mean” value [2, 11] was 0.40 and the “MPR (metabolite to parent ratio), Median” value [2, 11] was 0.33. For the same molecule, the “AUClast, Geometric mean” value [2, 12] was 400.4 ng·h/mL, the “AUClast, Mean” value [2, 12] was 412.0 ng·h/mL and the “AUClast, Median” value [2, 12] was 388.6 ng·h/mL. The “Clast, Geometric mean” value [2, 12] was 4.4 ng/mL, the “Clast, Mean” value [2, 12] was 4.8 ng/mL and the “Clast, Median” value [2, 12] was 4.1 ng/mL. The “Cmax, Geometric mean” value [2, 12] was 35.0 ng/mL, the “Cmax, Mean” value [2, 12] was 36.7 ng/mL and the “Cmax, Median” value [2, 12] was 31.1 ng/mL. The “tlag, Median” value [2, 12] was 0.0 h, the “tmax, Median” value [2, 12] was 3.0 h and the “MPR (metabolite to parent ratio), Geometric mean” value [2, 13] was 0.37. For the same molecule, the “MPR (metabolite to parent ratio), Mean” value [2, 13] was 0.39, the “MPR (metabolite to parent ratio), Median” value [2, 13] was 0.32 and the “AUClast, Geometric mean” value [2, 7] was 399.5 ng·h/mL. The “AUClast, Mean” value [2, 7] was 411.1 ng·h/mL, the “AUClast, Median” value [2, 7] was 396.1 ng·h/mL and the “Clast, Geometric mean” value [2, 7] was 4.0 ng/mL. For the same molecule, the “Clast, Mean” value [2, 7] was 4.4 ng/mL, the “Clast, Median” value [2, 7] was 3.9 ng/mL and the “Cmax, Geometric mean” value [2, 7] was 37.6 ng/mL. The “Cmax, Mean” value [2, 7] was 39.5 ng/mL, the “Cmax, Median” value [2, 7] was 33.6 ng/mL and the “tlag, Median” value [2, 7] was 0.0 h. For the same molecule, the “tmax, Median” value [2, 7] was 2.5 h, the “MPR, back transformed LSM Visit 1” value ([4]; Visit 1: without CBD, metabolite to parent ratio) was 0.37 and the “AUClast, back transformed LSM Visit 1” value [4, 14] was 400.41. The “Clast, back transformed LSM Visit 1” value [4, 14] was 4.43, the “Cmax, back transformed LSM Visit 1” value ([4]; Visit 1: without CBD, mixed effects model on log-transformed data, in ng/mL) was 34.99 and the “AUClast, Ratio of LSMs” value [4, 15] was 0.99. The “Clast, Ratio of LSMs” value [4, 15] was 0.91, the “Cmax, Ratio of LSMs” value [4, 15] was 1.05 and the “MPR, Ratio of LSMs” value [4, 15] was 0.95. For the same molecule, the “MPR, back transformed LSM Visit 2” value ([4]; Visit 2: with 30 mg CBD, metabolite to parent ratio) was 0.36, the “AUClast, back transformed LSM Visit 2” value [4, 16] was 396.86 and the “Clast, back transformed LSM Visit 2” value [4, 16] was 4.04. For the same molecule, the “Cmax, back transformed LSM Visit 2” value ([4]; Visit 2: with 30 mg CBD, mixed effects model on log-transformed data, in ng/mL) was 36.84, the “terminal half‐life” value [3] was ~ 7 h and the “mean (SD) AUC” value ([3]; 25 participants dosed with 100 mg tramadol) was 669 (181) ng*h/mL.
With `COc1cccc(C2(O)CCCCC2CN(C)C)c1` (stereo not drawn) [Tramadol] the “Clast, Geometric mean” value [2, 12] was 7.4 ng/mL, the “Clast, Mean” value [2, 12] was 8.9 ng/mL and the “Clast, Median” value [2, 12] was 8.4 ng/mL. The “tlag, Median” value [2, 12] was 0.0 h, the “Clast, Geometric mean” value [2, 7] was 6.8 ng/mL and the “Clast, Mean” value [2, 7] was 8.7 ng/mL. The “Clast, Median” value [2, 7] was 8.0 ng/mL, the “tlag, Median” value [2, 7] was 0.0 h and the AUC(0-t) [2, 17] was 1130 ng·h/mL. The AUC(0-t) [2, 8] was 1150 ng·h/mL, the AUC(0-t) [2, 18] was 1170 ng·h/mL and the AUC(0-t) [2, 9] was 1210 ng·h/mL. For the same molecule, the AUC(0-t) [2, 19] was 1240 ng·h/mL, the AUC(0-t) [2, 10] was 1160 ng·h/mL and the Cmax [2, 17] was 137 ng/mL. For the same molecule, the Cmax [2, 8] was 150 ng/mL, the Cmax [2, 18] was 141 ng/mL and the Cmax [2, 9] was 153 ng/mL. For the same molecule, the Cmax [2, 19] was 135 ng/mL, the Cmax [2, 10] was 155 ng/mL and the “proportion of tramadol converted into N‐desmethyltramadol (N‐DSMT) by CYP3A4 and CYP2B6” value [5] was “approximately 20%”. The “Clast, back transformed LSM Visit 1” value [4, 14] was 7.41, the “AUClast, Ratio of LSMs” value [4, 15] was 1.04 and the “Clast, Ratio of LSMs” value [4, 15] was 0.97. The “Cmax, Ratio of LSMs” value [4, 15] was 1.10, the “Clast, back transformed LSM Visit 2” value [4, 16] was 7.16 and the AUC(0-t) ([4]; human, in vivo) was 1130 ng·h/mL. For the same molecule, the Cmax ([4]; human, in vivo) was 137 ng/mL, the AUC(0-t) ([4]; human, in vivo, 30 mg) was 1180 ng·h/mL and the Cmax ([4]; human, in vivo, 30 mg) was 151 ng/mL. For the same molecule, the “proportion of tramadol converted into O‐desmethyltramadol (O‐DSMT) by CYP2D6” value [6] was “approximately 80%” and the “terminal half‐life” value [3] was 5 to 6 h.
For `CNCCC=C1c2ccccc2CCc2ccccc21` [Nortriptyline], the “MPR (metabolite to parent ratio), Geometric mean” value ([2]; human, in vivo) was 0.57, the “MPR (metabolite to parent ratio), Mean” value ([2]; human, in vivo) was 0.62 and the “MPR (metabolite to parent ratio), Median” value ([2]; human, in vivo) was 0.60. The AUC(0-t) ([4]; human, in vivo) was 75.3 ng·h/mL, the “Clast, back transformed LSM Visit 1” value ([4]; human, in vivo) was 3.30 and the Cmax ([4]; human, in vivo) was 4.36 ng/mL. The AUC(0-t) ([4]; human, in vivo, 30 mg) was 79.5 ng·h/mL, the Cmax ([4]; human, in vivo, 30 mg) was 4.51 ng/mL and the “terminal half‐life” value [3] was ~ 26 h.
